Calls of active or inactive are those of the source. The calls are words filed in the database; no cut-off is given here.
How the values were obtained:
Mus musculus [1] = assay: Anti-inflammatory activity in BLM-induced C57BL/6 mouse model of acute lung neutrophilic inflammation assessed as reduction in total cell number in BALF at 10 and 25 mg/kg, ip qd for 7 days post BLM challenge measured on day 7; type: functional, organism-based
Mus musculus [2] = assay: Anti-inflammatory activity in BLM-induced C57BL/6 mouse model of acute lung neutrophilic inflammation assessed as reduction neutrophil count at 50 mg/kg, ip qd for 7 days post BLM challenge measured on day 7; type: functional, organism-based
Mus musculus [3] = assay: Protection against BLM-induced lung fibrosis in C57BL/6 mouse assessed as reduction in deposition of collagen fibers at 10 and 25 mg/kg, ip qd for 7 days post BLM challenge measured on day 7 by Massons trichrome staining based method; type: functional, organism-based
Mus musculus [4] = assay: Protection against BLM-induced lung fibrosis in C57BL/6 mouse assessed as reduction in hydroxyproline level at 25 mg/kg, ip qd for 7 days post BLM challenge measured on day 14; type: functional; settings: C57BL/6, ip
Mus musculus [5] = assay: Protection against BLM-induced lung fibrosis in C57BL/6 mouse assessed as TGF-beta1 level at 10 and 25 mg/kg, ip qd for 7 days post BLM challenge measured on day 7 by qRT-PCR method; type: functional, organism-based
Mus musculus [6] = assay: Protection against BLM-induced lung fibrosis in C57BL/6 mouse assessed as TGF-beta1 level at 10 and 25 mg/kg, ip qd for 7 days post BLM challenge measured on day 14 by qRT-PCR method; type: functional, organism-based
Mus musculus [7] = assay: Anti-inflammatory activity in LPS-induced C57BL/6 mouse model of acute lung injury assessed as reduction in total number of leucocytes in BALF at 10 to 50 mg/kg, ip pretreated for 1 hr followed LPS challenge measured after 24 hrs; type: functional, organism-based
Mus musculus [8] = assay: Anti-inflammatory activity in LPS-induced C57BL/6 mouse model of acute lung injury assessed as reduction in pulmonary edema by measuring lung wet and dry ratio at 10 to 50 mg/kg, ip pretreated for 1 hr followed LPS challenge after 24 hrs; type: functional, organism-based
Mus musculus [9] = assay: Anti-inflammatory activity in LPS-induced C57BL/6 mouse model of acute lung injury assessed as reduction in IL-6 level pretreated intraperitoneally for 1 hr followed LPS challenge after 24 hrs by ELISA; type: functional
Plasma [10] = assay: Plasma concentration in human; type: ADME, cell-free
Plasma [11] = assay: Plasma concentration in mouse by liquid chromatography mass spectrometry; type: ADME, cell-free
Mus musculus [12] = assay: Anti-inflammatory activity in BLM-induced C57BL/6 mouse model of acute lung neutrophilic inflammation assessed as MPO activity at 50 mg/kg, ip qd for 7 days post BLM challenge measured on day 7 (reference value: 0.98 U/g); type: functional
Mus musculus [13] = assay: Protection against BLM-induced lung fibrosis in C57BL/6 mouse assessed as reduction in deposition of collagen fibers at 25 and 50 mg/kg, ip qd for 7 days post BLM challenge measured on day 7 by Massons trichrome staining based method; type: functional, organism-based
Mus musculus [14] = assay: Anti-inflammatory activity in LPS-induced C57BL/6 mouse model of acute lung injury assessed as intact alveolar structure at 10 to 50 mg/kg, ip pretreated for 1 hr followed LPS challenge measured after 24 hrs by hematoxylin and eosin staining based microscopy; type: functional, organism-based
Mus musculus [15] = assay: Anti-inflammatory activity in BLM-induced C57BL/6 mouse model of acute lung neutrophilic inflammation assessed as reduction in number of lymphocytes in BALF at 25 and 50 mg/kg, ip qd for 7 days post BLM challenge measured on day 7; type: functional, organism-based
Mus musculus [16] = assay: Protection against BLM-induced lung fibrosis in C57BL/6 mouse assessed as TGF-beta1 level at 25 and 50 mg/kg, ip qd for 7 days post BLM challenge measured on day 14 by qRT-PCR method; type: functional, organism-based

Structure (SMILES)	Activity (Mus musculus [1])	Activity (Mus musculus [2])	Activity (Mus musculus [3])	inhibition in vivo at 25 mg/kg (Mus musculus [4]) [%]	Activity (Mus musculus [5])	Activity (Mus musculus [6])	Activity (Mus musculus [7])	Activity (Mus musculus [8])	Activity (Mus musculus [9])	concentration (Plasma [10]) [µM]	concentration (Plasma [11]) [µM]	Activity (Mus musculus [12]) [U/g]	Activity (Mus musculus [13])	Activity (Mus musculus [14])	Activity (Mus musculus [15])	Activity (Mus musculus [16])
CN(C)c1ccc(C(=O)NCCCCCCC(=O)NO)cc1	Active	Active	Active	34	Active	Active	–	–	–	–	–	–	–	–	–	–
O=C(CCCCCCC(=O)Nc1ccccc1)NO [VORINOSTAT]	–	–	–	–	–	–	Active	Active	Dose-dependent effect	0.01 to 6	1 to 10	0.67	Active	Active	Active	Active

From ChEMBL document CHEMBL4007425, “Drug Repurposing of Histone Deacetylase Inhibitors That Alleviate Neutrophilic Inflammation in Acute Lung Injury and Idiopathic Pulmonary Fibrosis via Inhibiting Leukotriene A4 Hydrolase and Blocking LTB4 Biosynthesis” (J Med Chem, 2017)
